Assay results reported in patent publication US20070021434A1, “NON-NUCLEOSIDE ANTI-HEPACIVIRUS AGENTS AND USES THEREOF” (Migenix Inc., priority 2005, published 2007).

Target: HCV RdRp (NS5B) (UniProt P26663)
Assay type: biochemical, hepatitis C virus

Chain of HCV RdRp (NS5B) (P26663 whole entry, looked up): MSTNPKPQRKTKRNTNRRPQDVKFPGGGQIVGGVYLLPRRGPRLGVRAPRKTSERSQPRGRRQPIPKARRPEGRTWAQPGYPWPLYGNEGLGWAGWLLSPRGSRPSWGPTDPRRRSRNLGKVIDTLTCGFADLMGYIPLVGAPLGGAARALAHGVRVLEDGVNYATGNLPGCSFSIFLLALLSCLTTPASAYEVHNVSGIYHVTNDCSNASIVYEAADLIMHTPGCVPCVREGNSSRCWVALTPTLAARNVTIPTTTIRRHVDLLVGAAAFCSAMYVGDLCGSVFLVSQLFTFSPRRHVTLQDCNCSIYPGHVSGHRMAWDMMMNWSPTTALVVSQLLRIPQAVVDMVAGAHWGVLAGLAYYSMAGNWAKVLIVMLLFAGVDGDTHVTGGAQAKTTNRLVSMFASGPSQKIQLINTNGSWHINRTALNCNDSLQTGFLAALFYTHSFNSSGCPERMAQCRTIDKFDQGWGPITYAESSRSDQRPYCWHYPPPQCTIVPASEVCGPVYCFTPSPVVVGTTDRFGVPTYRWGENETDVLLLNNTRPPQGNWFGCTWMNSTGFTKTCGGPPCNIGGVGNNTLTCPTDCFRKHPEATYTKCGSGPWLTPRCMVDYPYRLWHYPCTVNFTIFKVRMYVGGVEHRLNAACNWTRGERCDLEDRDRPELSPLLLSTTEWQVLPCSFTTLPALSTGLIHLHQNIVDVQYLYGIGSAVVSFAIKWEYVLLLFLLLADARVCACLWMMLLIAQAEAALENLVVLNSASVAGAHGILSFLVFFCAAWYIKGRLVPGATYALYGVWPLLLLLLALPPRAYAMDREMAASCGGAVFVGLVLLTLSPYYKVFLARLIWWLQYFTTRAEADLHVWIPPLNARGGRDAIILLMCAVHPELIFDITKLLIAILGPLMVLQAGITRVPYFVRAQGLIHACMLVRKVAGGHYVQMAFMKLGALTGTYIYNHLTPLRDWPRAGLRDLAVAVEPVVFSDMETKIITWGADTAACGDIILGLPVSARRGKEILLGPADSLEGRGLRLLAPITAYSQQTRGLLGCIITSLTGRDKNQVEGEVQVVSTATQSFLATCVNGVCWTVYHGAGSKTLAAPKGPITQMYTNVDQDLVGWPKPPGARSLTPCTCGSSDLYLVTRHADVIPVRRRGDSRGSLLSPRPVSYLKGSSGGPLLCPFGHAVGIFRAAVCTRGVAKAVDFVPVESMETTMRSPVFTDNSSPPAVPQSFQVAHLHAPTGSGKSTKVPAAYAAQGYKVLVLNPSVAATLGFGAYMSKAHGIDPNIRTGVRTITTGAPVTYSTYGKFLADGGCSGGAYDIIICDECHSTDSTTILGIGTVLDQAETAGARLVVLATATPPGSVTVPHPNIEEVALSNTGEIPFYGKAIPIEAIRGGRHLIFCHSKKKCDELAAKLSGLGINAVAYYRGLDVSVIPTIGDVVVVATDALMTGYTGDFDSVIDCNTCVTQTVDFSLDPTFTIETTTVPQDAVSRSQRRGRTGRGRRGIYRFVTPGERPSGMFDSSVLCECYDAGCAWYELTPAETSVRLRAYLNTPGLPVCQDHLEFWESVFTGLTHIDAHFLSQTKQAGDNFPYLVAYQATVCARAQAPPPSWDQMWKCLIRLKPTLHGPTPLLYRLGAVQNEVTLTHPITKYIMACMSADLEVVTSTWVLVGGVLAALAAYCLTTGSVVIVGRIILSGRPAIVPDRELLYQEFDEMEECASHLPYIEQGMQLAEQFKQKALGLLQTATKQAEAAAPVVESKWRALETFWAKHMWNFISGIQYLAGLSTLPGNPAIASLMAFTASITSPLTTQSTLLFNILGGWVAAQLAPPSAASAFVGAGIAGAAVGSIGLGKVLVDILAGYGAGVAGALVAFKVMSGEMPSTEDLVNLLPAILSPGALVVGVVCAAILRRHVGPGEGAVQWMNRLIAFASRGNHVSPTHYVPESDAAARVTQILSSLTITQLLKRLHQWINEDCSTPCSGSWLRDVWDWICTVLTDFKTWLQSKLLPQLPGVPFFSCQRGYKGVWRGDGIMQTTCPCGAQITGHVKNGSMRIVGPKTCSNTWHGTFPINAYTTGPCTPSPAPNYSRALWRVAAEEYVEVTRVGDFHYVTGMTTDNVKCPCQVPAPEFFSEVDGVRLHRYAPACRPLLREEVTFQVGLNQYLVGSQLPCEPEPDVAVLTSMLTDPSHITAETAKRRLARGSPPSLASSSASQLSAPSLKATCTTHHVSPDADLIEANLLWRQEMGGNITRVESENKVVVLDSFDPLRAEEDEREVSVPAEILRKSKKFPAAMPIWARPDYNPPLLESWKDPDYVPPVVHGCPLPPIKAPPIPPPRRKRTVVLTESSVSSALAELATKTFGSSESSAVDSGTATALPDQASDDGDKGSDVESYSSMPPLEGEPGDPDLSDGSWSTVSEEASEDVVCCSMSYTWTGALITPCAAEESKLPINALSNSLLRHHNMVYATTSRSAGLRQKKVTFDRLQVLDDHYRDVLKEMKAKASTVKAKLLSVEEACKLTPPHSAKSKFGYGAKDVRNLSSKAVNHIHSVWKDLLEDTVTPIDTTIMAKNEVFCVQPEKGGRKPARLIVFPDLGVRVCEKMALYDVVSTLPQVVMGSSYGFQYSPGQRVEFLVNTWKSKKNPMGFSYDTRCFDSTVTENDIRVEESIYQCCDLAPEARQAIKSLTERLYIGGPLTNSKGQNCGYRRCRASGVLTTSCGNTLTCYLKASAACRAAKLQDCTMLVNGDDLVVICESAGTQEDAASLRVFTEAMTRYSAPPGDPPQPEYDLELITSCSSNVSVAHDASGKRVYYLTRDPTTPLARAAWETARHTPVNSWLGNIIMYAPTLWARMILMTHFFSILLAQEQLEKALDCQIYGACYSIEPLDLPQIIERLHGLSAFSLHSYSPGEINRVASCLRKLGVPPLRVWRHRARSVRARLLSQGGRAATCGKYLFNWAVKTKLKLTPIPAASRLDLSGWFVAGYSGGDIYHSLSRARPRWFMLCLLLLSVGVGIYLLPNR

SMILES	IC50
Cc1ccc(NC(=O)C2CCCCN2C(=O)OCC2c3ccccc3-c3ccccc32)cc1 [Compound 123, (R)-2-P-TOLYLCARBAMOYL-PIPERIDINE-1-CARBOXYLIC ACID 9H-FLUOREN-9-YLMETHYL ESTER]	> 50 µM
Cc1ccc(NC(=O)C(CCCCN(C)C)NC(=O)OCC2c3ccccc3-c3ccccc32)cc1 [Compound 124, (S)-(5-DIMETHYLAMINO-1-P-TOLYLCARBAMOYL-PENTYL)-CARBAMIC ACID 9H-FLUOREN-9-YLMETHYL ESTER]	> 50 µM
Cc1ccc(NC(=O)[C@H](CCCCN)NC(=O)NC2c3ccccc3-c3ccccc32)cc1 [Compound 126, (S)-6-AMINO-2-[3-(9H-FLUOREN-9-YL)-UREIDO]-HEXANOIC ACID P-TOLYLAMIDE]	< 10 µM
NCCCC[C@@H](NC(=O)OCC1c2ccccc2-c2ccccc21)C(=O)Nc1ccc(C2CCCCC2)cc1 [Compound 128, (R)-[5-AMINO-1-(4-CYCLOHEXYL-PHENYLCARBAMOYL)-PENTYL]-CARBAMIC ACID 9H-FLUOREN-9-YLMETHYL ESTER]	< 10 µM
Cc1ccc(NC(=O)C(Cc2ccc(CN)cc2)NC(=O)OCC2c3ccccc3-c3ccccc32)cc1 [Compound 129, (S)-[2-(4-AMINOMETHYL-PHENYL)-1-P-TOLYLCARBAMOYL-ETHYL]-CARBAMIC ACID 9H-FLUOREN-9-YLMETHYL ESTER]	< 10 µM
Cc1ccc(NC(=O)C2CC(OC(=O)CCN)CN2C(=O)OCC2c3ccccc3-c3ccccc32)cc1 [Compound 130, (S)-(4-(R)-(3-AMINO-PROPIONYLOXY)-2-P-TOLYLCARBAMOYL-PYRROLIDINE-1-CARBOXYLIC ACID 9H-FLUOREN-9-YLMETHYL ESTER)]	> 50 µM
Cc1ccc(NC(=O)C2CC(OC(=O)CN)CN2C(=O)OCC2c3ccccc3-c3ccccc32)cc1 [Compound 131, (S)-[4-(R)-(2-AMINO-ACETOXY)-2-P-TOLYLCARBAMOYL-PYRROLIDINE-1-CARBOXYLIC ACID 9H-FLUOREN-9-YLMETHYL ESTER]]	> 50 µM
Cc1ccc(NC(=O)C(CCCCN)NC(=O)NCc2ccccc2)cc1 [Compound 133, (S)-6-AMINO-2-(3-BENZYL-UREIDO)-HEXANOIC ACID P-TOLYLAMIDE]	> 50 µM
Cc1ccc(NC(=O)C(CCCCN)NC(=O)NCCc2ccccc2)cc1 [Compound 134, (S)-6-AMINO-2-(3-PHENETHYL-UREIDO)-HEXANOIC ACID P-TOLYLAMIDE]	> 50 µM
Cc1ccc(NC(=O)NC(CCCCN)C(=O)Nc2ccc(C)cc2)cc1 [Compound 135, (S)-6-AMINO-2-(3-P-TOLYL-UREIDO)-HEXANOIC ACID P-TOLYLAMIDE]	> 50 µM
Cc1ccc(CNC(=O)NC(CCCCN)C(=O)Nc2ccc(C)cc2)cc1 [Compound 136, (S)-6-AMINO-2-[3-(4-METHYL-BENZYL)-UREIDO]-HEXANOIC ACID P-TOLYLAMIDE]	> 50 µM
Cc1ccc(NC(=O)C2(NC(=O)OCC3c4ccccc4-c4ccccc43)CCNCC2)cc1 [Compound 138, (4-P-TOLYLCARBAMOYL-PIPERIDIN-4-YL)-CARBAMIC ACID 9H-FLUOREN-9-YLMETHYL ESTER]	> 50 µM
COc1ccc(CNC(=O)N[C@@H](CCCCN)C(=O)Nc2ccc(C)cc2)cc1 [Compound 139, (S)-6-AMINO-2-[3-(4-METHOXY-BENZYL)-UREIDO]-HEXANOIC ACID P-TOLYLAMIDE]	> 50 µM
Cc1ccc(NC(=O)[C@H](CCCCN)NC(=O)NCc2ccc(Cl)c(Cl)c2)cc1 [Compound 140, (S)-6-AMINO-2-[3-(3,4-DICHLORO-BENZYL)-UREIDO]-HEXANOIC ACID P-TOLYLAMIDE]	10 to 50 µM
NCCCC[C@@H](NC(=O)NCc1ccccc1)C(=O)Nc1ccc(C2CCCCC2)cc1 [Compound 141, (R)-6-AMINO-2-(3-BENZYL-UREIDO)-HEXANOIC ACID (4-CYCLOHEXYL-PHENYL)-AMIDE]	< 10 µM
NCCCC[C@H](NC(=O)OCC1c2ccccc2-c2ccccc21)C(=O)Nc1ccc(-c2ccccc2)cc1 [Compound 143, (S)-[5-AMINO-1-(BIPHENYL-4-YLCARBAMOYL)-PENTYL]-CARBAMIC ACID 9H-FLUOREN-9-YLMETHYL ESTER]	< 10 µM
NCCCC[C@@H](NC(=O)OCC1c2ccccc2-c2ccccc21)C(=O)Nc1ccc(-c2ccccc2)cc1 [Compound 144, (R)-[5-AMINO-1-(BIPHENYL-4-YLCARBAMOYL)-PENTYL]-CARBAMIC ACID 9H-FLUOREN-9-YLMETHYL ESTER]	< 10 µM
Cc1ccc(NC(=O)C(Cc2ccc(CN)cc2)NC(=O)Nc2ccc3c(c2)Cc2ccccc2-3)cc1 [Compound 147, (S)-3-(4-AMINOMETHYL-PHENYL)-2-[3-(9H-FLUOREN-2-YL)-UREIDO]-N-P-TOLYL-PROPIONAMIDE]	< 10 µM
CC(C)(C)c1ccc(NC(=O)[C@H](Cc2ccc(CN)cc2)NC(=O)NCc2ccccc2)cc1 [Compound 148, (S)-3-(4-AMINOMETHYL-PHENYL)-2-(3-BENZYL-UREIDO)-N-(4-TERT-BUTYL-PHENYL)-PROPIONAMIDE]	> 50 µM
CC(C)(C)c1ccc(NC(=O)[C@H](Cc2ccc(CN)cc2)NC(=O)NCc2ccc(Cl)c(Cl)c2)cc1 [Compound 149, (S)-3-(4-AMINOMETHYL-PHENYL)-N-(4-TERT-BUTYL-PHENYL)-2-[3-(3,4-DICHLORO-BENZYL)-UREIDO]-PROPIONAMIDE]	< 10 µM

SMILES	IC50
CC(C)(C)c1ccc(NC(=O)[C@H](Cc2ccc(CN)cc2)NC(=O)Nc2ccc(-c3ccccc3)cc2)cc1 [Compound 150, (S)-3-(4-AMINOMETHYL-PHENYL)-2-(3-BIPHENYL-4-YL-UREIDO)-N-(4-TERT-BUTYL-PHENYL)-PROPIONAMIDE]	< 10 µM
CC(C)(C)c1ccc(NC(=O)[C@H](Cc2ccc(CN)cc2)NC(=O)NC(c2ccccc2)c2ccccc2)cc1 [Compound 151, (S)-3-(4-AMINOMETHYL-PHENYL)-2-(3-BENZHYDRYL-UREIDO)-N-(4-TERT-BUTYL-PHENYL)-PROPIONAMIDE]	< 10 µM
CC(C)(C)c1ccc(NC(=O)[C@H](Cc2ccc(CN)cc2)NC(=O)Nc2ccc3c(c2)Cc2ccccc2-3)cc1 [Compound 152, (S)-3-(4-AMINOMETHYL-PHENYL)-N-(4-TERT-BUTYL-PHENYL)-2-[3-(9H-FLUOREN-2-YL)-UREIDO]-PROPIONAMIDE]	< 10 µM
NCCCC[C@H](NC(=O)NCc1ccccc1)C(=O)Nc1ccc(CN(C(=O)c2ccco2)C2CCCCC2)cc1 [Compound 153, (S)-FURAN-2-CARBOXYLIC ACID {4-[6-AMINO-2-(3-BENZYL-UREIDO)-HEXANOYLAMINO]-BENZYL}-CYCLOHEXYL-AMIDE]	> 50 µM
NCCCC[C@H](NC(=O)NCc1ccc(Cl)c(Cl)c1)C(=O)Nc1ccc(CN(C(=O)c2ccco2)C2CCCCC2)cc1 [Compound 154, (S)-FURAN-2-CARBOXYLIC ACID (4-{6-AMINO-2-[3-(3,4-DICHLORO-BENZYL)-UREIDO]-HEXANOYLAMINO}-BENZYL)-CYCLOHEXYL-AMIDE]	10 to 50 µM
O=C(CC1CNCCN1C(=O)OCC1c2ccccc2-c2ccccc21)Nc1ccc(C2CCCCC2)cc1 (stereo not drawn) [Compound 155, 2-[(4-CYCLOHEXYL-PHENYLCARBAMOYL)-METHYL]-PIPERAZINE-1-CARBOXYLIC ACID 9H-FLUOREN-9-YLMETHYL ESTER]	10 to 50 µM
O=C(Nc1ccc(C2CCCCC2)cc1)C1CN(C(=O)OCC2c3ccccc3-c3ccccc32)CCN1 (stereo not drawn) [Compound 157, 3-(4-CYCLOHEXYL-PHENYLCARBAMOYL)-PIPERAZINE-1-CARBOXYLIC ACID 9H-FLUOREN-9-YLMETHYL ESTER]	> 50 µM
O=C(CC1CNCCN1C(=O)NCc1ccccc1)Nc1ccc(C2CCCCC2)cc1 (stereo not drawn) [Compound 158, 2-[(4-CYCLOHEXYL-PHENYLCARBAMOYL)-METHYL]-PIPERAZINE-1-CARBOXYLIC ACID BENZYLAMIDE]	10 to 50 µM
O=C(CC1CNCCN1C(=O)NCc1ccc(Cl)cc1)Nc1ccc(C2CCCCC2)cc1 (stereo not drawn) [Compound 159, 2-[(4-CYCLOHEXYL-PHENYLCARBAMOYL)-METHYL]-PIPERAZINE-1-CARBOXYLIC ACID 4-CHLORO-BENZYLAMIDE]	10 to 50 µM
O=C(CC1CNCCN1C(=O)NCc1ccc(Cl)c(Cl)c1)Nc1ccc(C2CCCCC2)cc1 (stereo not drawn) [Compound 160, 2-[(4-CYCLOHEXYL-PHENYLCARBAMOYL)-METHYL]-PIPERAZINE-1-CARBOXYLIC ACID 3,4-DICHLORO-BENZYLAMIDE]	10 to 50 µM
O=C(CC1CNCCN1C(=O)Nc1ccc(-c2ccccc2)cc1)Nc1ccc(C2CCCCC2)cc1 (stereo not drawn) [Compound 161, 2-[(4-CYCLOHEXYL-PHENYLCARBAMOYL)-METHYL]-PIPERAZINE-1-CARBOXYLIC ACID BIPHENYL-4-YLAMIDE]	10 to 50 µM
O=C(CC1CNCCN1C(=O)Nc1ccc2c(c1)Cc1ccccc1-2)Nc1ccc(C2CCCCC2)cc1 (stereo not drawn) [Compound 162, 2-[(4-CYCLOHEXYL-PHENYLCARBAMOYL)-METHYL]-PIPERAZINE-1-CARBOXYLIC ACID (9H-FLUOREN-2-YL)-AMIDE]	10 to 50 µM
NCCCC[C@@H](NC(=O)NCc1ccc(Cl)cc1)C(=O)Nc1ccc(C2CCCCC2)cc1 [Compound 164, (R)-6-AMINO-2-[3-(4-CHLORO-BENZYL)-UREIDO]-HEXANOIC ACID (4-CYCLOHEXYL-PHENYL)-AMIDE]	< 10 µM
NCCCC[C@@H](NC(=O)NCc1ccc(Cl)c(Cl)c1)C(=O)Nc1ccc(C2CCCCC2)cc1 [Compound 165, (R)-6-AMINO-2-[3-(3,4-DICHLORO-BENZYL)-UREIDO]-HEXANOIC ACID (4-CYCLOHEXYL-PHENYL)-AMIDE]	10 to 50 µM
Cc1ccc(NC(=O)[C@H](CCCCN)NC(=O)NCc2ccc(Cl)cc2)cc1 [Compound 167, (S)-6-AMINO-2-[3-(4-CHLORO-BENZYL)-UREIDO]-HEXANOIC ACID P-TOLYLAMIDE]	> 50 µM
Cc1ccc(NC(=O)C(CCCCN)NC(=O)NCc2ccccc2)cc1 [Compound 168, (R)-6-AMINO-2-(3-BENZYL-UREIDO)-HEXANOIC ACID P-TOLYLAMIDE]	> 50 µM
Cc1ccc(NC(=O)[C@@H](CCCCN)NC(=O)NCc2ccc(Cl)cc2)cc1 [Compound 169, (R)-6-AMINO-2-[3-(4-CHLORO-BENZYL)-UREIDO]-HEXANOIC ACID P-TOLYLAMIDE]	> 50 µM
Cc1ccc(NC(=O)[C@@H](CCCCN)NC(=O)NCc2ccc(Cl)c(Cl)c2)cc1 [Compound 170, (R)-6-AMINO-2-[3-(3,4-DICHLORO-BENZYL)-UREIDO]-HEXANOIC ACID P-TOLYLAMIDE]	> 50 µM
Cc1ccc(NC(=O)C(CCCCN)NC(=O)Nc2ccc(-c3ccccc3)cc2)cc1 [Compound 171, (R)-6-AMINO-2-(3-BIPHENYL-4-YL-UREIDO)-HEXANOIC ACID P-TOLYLAMIDE]	10 to 50 µM
